Literature values, collected in US8951969B2, “Compositions and methods for treating centrally mediated nausea and vomiting” (Helsinn Healthcare S.A., priority 2009, dated 2015).

Experiments:
[1] = system: nausea following moderately or highly emetogenic chemotherapy; conditions: humans, compared to a 5-HT3 antagonist alone; cited from earlier work
[2] = system: nausea, moderately emetogenic chemotherapy; conditions: cited from earlier work

| Compound | effect on incidence or severity of nausea [1] | effect against nausea ([2]; administered in response to moderately emetogenic chemotherapy) | side effect ([2]; moderately emetogenic chemotherapy) |
| --- | --- | --- | --- |
| C[C@@H](O[C@H]1OCCN(Cc2n[nH]c(=O)[nH]2)[C@H]1c1ccc(F)cc1)c1cc(C(F)(F)F)cc(C(F)(F)F)c1 [aprepitant] | unable to induce a significant reduction in the incidence or severity of nausea | – | – |
| CC(=O)N1CCN([C@H]2CCN(C(=O)N(C)[C@H](C)c3cc(C(F)(F)F)cc(C(F)(F)F)c3)[C@@H](c3ccc(F)cc3C)C2)CC1 [casopitant, (2R,4S)-4-(4-acetytlpiperazin-1-yl)-N-{(1R)-1-[3,5-bis(trifluoromethyl)phenyl]ethyl}-2-(4-fluoro-2-methylphenyl)-N-methylpiperidine-1-carboxamide] | – | no statistically significant effect against nausea | induced nausea as a side effect |
